Reference: patent publication US8772500B2, “TRPV3 modulators” (AbbVie Inc., priority 2011, dated 2014)

What was measured:
human TRPV3 = molecular target: T1, human TRPV3 (Homo sapiens, UniProt Q8NET8); assay: In vitro antagonism of recombinant human TRPV3 activation (FLIPR Tetra calcium assay, 2-APB as agonist); assay type: cell-based; details: HEK293 cells stably expressing human TRPV3; 2-APB 80 μM; range class; read-out: IC50 (reported range)
T1 construct: expressed in transfected cells
T1 sequence (Q8NET8 1-790): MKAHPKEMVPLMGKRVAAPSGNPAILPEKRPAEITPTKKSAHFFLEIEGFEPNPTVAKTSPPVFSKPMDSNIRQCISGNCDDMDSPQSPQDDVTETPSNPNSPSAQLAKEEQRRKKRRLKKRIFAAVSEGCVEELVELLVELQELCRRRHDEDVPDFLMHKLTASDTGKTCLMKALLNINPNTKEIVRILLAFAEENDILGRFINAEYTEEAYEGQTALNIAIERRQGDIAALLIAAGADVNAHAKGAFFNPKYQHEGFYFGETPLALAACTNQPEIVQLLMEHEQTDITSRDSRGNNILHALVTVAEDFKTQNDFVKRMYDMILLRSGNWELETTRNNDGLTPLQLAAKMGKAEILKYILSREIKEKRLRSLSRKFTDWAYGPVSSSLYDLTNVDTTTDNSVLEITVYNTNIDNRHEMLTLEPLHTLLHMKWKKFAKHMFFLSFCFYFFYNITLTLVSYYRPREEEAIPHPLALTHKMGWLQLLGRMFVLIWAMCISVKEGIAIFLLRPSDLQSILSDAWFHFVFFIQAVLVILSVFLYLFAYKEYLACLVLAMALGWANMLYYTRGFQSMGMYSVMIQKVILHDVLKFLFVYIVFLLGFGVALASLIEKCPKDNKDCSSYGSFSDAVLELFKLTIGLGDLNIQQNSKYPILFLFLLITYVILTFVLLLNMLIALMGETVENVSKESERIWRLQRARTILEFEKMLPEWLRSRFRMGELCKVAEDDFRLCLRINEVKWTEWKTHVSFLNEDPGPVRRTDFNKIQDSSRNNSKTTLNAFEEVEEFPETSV
Method in brief: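 Readout is FLIPR fluorescence, max minus min as percent of uninhibited 2-APB response, giving IC50 (usually mean of ≥2 runs). Stable human TRPV3 HEK293 cells, Calcium-4 dye-loaded, got test compound then, three minutes later, 80 μM 2-APB (EC80); run length 10 min.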

[1] = In vitro human microsomal stability assay; assay type: in vitro ADME
Method in brief: (§1)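 Metabolic stability is assessed by incubating test compound with liver microsomes at 37 °C in the presence of NADPH. Rat assays use Sprague-Dawley microsomes, while human assays use human microsomes.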

[2] = In vitro rat microsomal stability assay; assay type: in vitro ADME, rat (Sprague-Dawley)
Method in brief: as §1

[3] = Sprague-Dawley, rat, 0.5 h, 0.5 μM, pH 7.4
[4] = 0.5 μM substrate, 0.25 mg/mL microsomal protein, pH 7.4, 37° C., NADPH, 30 minutes

IC50 (human TRPV3)	HUMAN MICROSOMAL STABILITY (% REMAINING AFTER 30 MINUTES) ([1]; human, 0.5 h, 0.5 μM, pH 7.4)	RAT MICROSOMAL STABILITY (% REMAINING AFTER 30 MINUTES) [2, 3]	SMILES	HUMAN MICROSOMAL STABILITY (% REMAINING AFTER 30 MINUTES) [1, 4]	RAT MICROSOMAL STABILITY (% REMAINING AFTER 30 MINUTES) [2, 4]
0.05 to 0.5 µM	21%	11%	O[C@H](c1ccccn1)C1(c2cc(C(F)(F)F)ccn2)CCC1 [Example 123, (S)-pyridin-2-yl{1-[4-(trifluoromethyl)pyridin-2-yl]cyclobutyl}methanol]	–	–
5.1 to 20 µM	70%	70%	C[C@]1(O)C[C@@](c2ccc(OC(F)(F)F)cc2)([C@@H](O)c2ccccn2)C1 [Example 250, cis-3-[(R)-hydroxy(pyridin-2-yl)methyl]-1-methyl-3-[4-(trifluoromethoxy)-phenyl]cyclobutanol]	–	–
1.1 to 5 µM	80%	77%	CC1(O)CC(c2cccc(C(F)(F)F)c2)(C(O)c2ccccn2)C1 [Example 244, trans-3-[(S)-hydroxy(pyridin-2-yl)methyl]-1-methyl-3-[3-(trifluoromethyl)-phenyl]cyclobutanol]	–	–
1.1 to 5 µM	>85%	>85%	NC1CCCC1C(O)C1(c2ccc(C(F)(F)F)cc2)CCC1 (stereo not drawn) [Example 205, (2-aminocyclopentyl){1-[4-(trifluoromethyl)phenyl]cyclobutyl}methanol]	–	–
0.05 to 0.5 µM	46%	0.01%	COC1(OC)CC(c2ccc(OC(F)(F)F)cc2)(C(O)c2ccccn2)C1 (stereo not drawn) [Example 129, {3,3-dimethoxy-1-[4-(trifluoromethoxy)phenyl]cyclobutyl}(pyridin-2-yl)-methanol]	–	–
1.1 to 5 µM	5.3%	45%	O[C@H](c1ccccn1)C1(c2ccc(C(F)(F)F)c(F)c2)CCC1 [Example 29, (S)-{1-[3-fluoro-4-(trifluoromethyl)phenyl]cyclobutyl}(pyridin-2-yl)-methanol]	–	–
5.1 to 20 µM	>85%	81%	OC(c1ccccn1)C1(c2ccc(C(F)(F)F)cn2)CCC1 (stereo not drawn) [Example 115, pyridin-2-yl{1-[5-(trifluoromethyl)pyridin-2-yl]cyclobutyl}methanol]	–	–
1.1 to 5 µM	0.11%	<0.01%	OC(c1ccccn1)C1(C2CCCC2)CCC1 (stereo not drawn) [Example 163, (1-cyclopentylcyclobutyl)(pyridin-2-yl)methanol]	–	–
0.05 to 0.5 µM	5.6%	1.2%	OC(c1ccccn1)C1(c2ccc(F)c(C(F)(F)F)c2)CCC1 (stereo not drawn) [Example 15, {1-[4-fluoro-3-(trifluoromethyl)phenyl]cyclobutyl}(pyridin-2-yl)methanol]	–	–
0.05 to 0.5 µM	>85%	>85%	OC1CC(c2ccnc(C(F)(F)F)c2)(C(O)c2ccccn2)C1 [Example 306, trans-3-[(S)-hydroxy(pyridin-2-yl)methyl]-3-[2-(trifluoromethyl)pyridin-4-yl]cyclobutanol]	–	–
1.1 to 5 µM	42%	<0.01%	COC1CC(c2ccc(Cl)c(Cl)c2)(C(O)c2ccccn2)C1 [Example 150, (S)-[cis-1-(3,4-dichlorophenyl)-3-methoxycyclobutyl](pyridin-2-yl)methanol]	–	–

Continued, compound first:

SMILES	IC50 (human TRPV3)	HUMAN MICROSOMAL STABILITY (% REMAINING AFTER 30 MINUTES) ([1]; human, 0.5 h, 0.5 μM, pH 7.4)	RAT MICROSOMAL STABILITY (% REMAINING AFTER 30 MINUTES) [2, 3]	HUMAN MICROSOMAL STABILITY (% REMAINING AFTER 30 MINUTES) [1, 4]	RAT MICROSOMAL STABILITY (% REMAINING AFTER 30 MINUTES) [2, 4]
O[C@H](c1ccccn1)C1(c2cc(C(F)(F)F)ccn2)CC(F)(F)C1 [Example 126, (S)-{3,3-difluoro-1-[4-(trifluoromethyl)pyridin-2-yl]cyclobutyl}(pyridin-2-yl)methanol]	0.501 to 1 µM	21%	7.7%	–	–
CN1CCC(c2cccc(OC(F)(F)F)c2)(C(O)c2ccccn2)CC1 (stereo not drawn) [Example 146, {1-methyl-4-[3-(trifluoromethoxy)phenyl]piperidin-4-yl}(pyridin-2-yl)-methanol]	5.1 to 20 µM	–	–	84%	8.9%
N[C@@H]1CCC[C@H]1[C@@H](O)C1(c2ccc(Cl)c(Cl)c2)CCC1 [Example 220, (R)-[(1R,2R)-2-aminocyclopentyl][1-(3,4-dichlorophenyl)cyclobutyl]-methanol]	0.501 to 1 µM	>85%	67%	–	–
Cn1c(C2(C(O)c3ccccn3)CCC2)nc2ccccc21 (stereo not drawn) [Example 275, [1-(1-methyl-1H-benzimidazol-2-yl)cyclobutyl](pyridin-2-yl)methanol]	5.1 to 20 µM	67%	5.7%	–	–
Cc1cccc(C2(C(O)c3ccccn3)CCCO2)c1 (stereo not drawn) [Example 91, [2-(3-methylphenyl)tetrahydrofuran-2-yl](pyridin-2-yl)methanol]	0.05 to 0.5 µM	46%	1.0%	–	–
Cc1ccccc1CC1(C(O)c2ccccn2)CCC1 (stereo not drawn) [Example 253, [1-(2-methylbenzyl)cyclobutyl](pyridin-2-yl)methanol]	1.1 to 5 µM	0.21%	0.017%	–	–
O=C1CC(c2ccc(C(F)(F)F)cc2)(C(O)c2ccccn2)C1 (stereo not drawn) [Example 160, 3-[hydroxy(pyridin-2-yl)methyl]-3-[4-(trifluoromethyl)phenyl]cyclobutanone]	5.1 to 20 µM	>85%	60%	–	–
N[C@H]1CCC[C@H]1[C@@H](O)C1(c2ccc(OC(F)(F)F)cc2)CCC1 [Example 229, (R)-[(1R,2S)-2-aminocyclopentyl]{1-[4-(trifluoromethoxy)phenyl]-cyclobutyl}methanol]	1.1 to 5 µM	>85%	80%	–	–
OC(c1ccccn1)C1(c2ccc(Cl)c(Cl)c2)CCCO1 (stereo not drawn) [Example 99, (syn)-[2-(3,4-dichlorophenyl)tetrahydrofuran-2-yl](pyridin-2-yl)methanol]	1.1 to 5 µM	30%	0.17%	–	–
OC(C1CCCc2cccnc21)C1(c2ccc(OC(F)(F)F)cc2)CCC1 (stereo not drawn) [Example 177, (anti)-5,6,7,8-tetrahydroquinolin-8-yl{1-[4-(trifluoromethoxy)phenyl]-cyclobutyl}methanol]	1.1 to 5 µM	0.12%	<0.01%	–	–
N[C@H]1CCC[C@@H]1[C@H](O)C1(c2ccc(Cl)cc2)CCC1 [Example 225, (S)-[(1S,2S)-2-aminocyclopentyl][1-(4-chlorophenyl)cyclobutyl]methanol]	1.1 to 5 µM	>85%	34%	–	–
OC(c1ccccn1)C1(c2ccc(F)c(F)c2)CCC1 (stereo not drawn) [Example 4, [1-(3,4-difluorophenyl)cyclobutyl](pyridin-2-yl)methanol]	0.05 to 0.5 µM	19%	4.2%	–	–
O[C@@H](c1ccccn1)C1(c2cc(C(F)(F)F)ccn2)CC(F)(F)C1 [Example 125, (R)-{3,3-difluoro-1-[4-(trifluoromethyl)pyridin-2-yl]cyclobutyl}(pyridin-2-yl)methanol]	5.1 to 20 µM	53%	8.8%	–	–
OC(c1ccccn1)C1(c2cc(C(F)(F)F)cc(C(F)(F)F)c2)CCC1 (stereo not drawn) [Example 13, {1-[3,5-bis(trifluoromethyl)phenyl]cyclobutyl}(pyridin-2-yl)methanol]	0.501 to 1 µM	7.4%	19%	–	–
OC(CC1(c2ccc(OC(F)(F)F)cc2)CCC1)c1ccccn1 (stereo not drawn) [Example 76, 1-(pyridin-2-yl)-2-{1-[4-(trifluoromethoxy)phenyl]cyclobutyl}ethanol]	0.501 to 1 µM	39%	0.47%	–	–
